Details of data set [1]: key: 1-high; 2-medium; 3-low probability. The following applies: Table 4A; grading of probability from literature reports; cited from earlier work.
Details of data set [2]: key: 1-high; 2-medium; 3-low probability. The following applies: Table 4A; grading of probability from literature reports; cited from earlier work. This is another data set of the same source.
Details of data set [3]: key to Weight Gain: 1-high; 2-medium; 3-low probability. The following applies: cited from earlier work; for Weight Gain: Table 4A, grading of probability from literature reports.
The target in a further data set is 5-HT6 receptor (Rattus norvegicus, UniProt P31388). The following applies: cited from earlier work.
For data set [4], the target named is 5-HT7 receptor (Rattus norvegicus, UniProt P32305). The following applies: cited from earlier work.
In data set [5] the target is D1 dopamine receptor (Homo sapiens, UniProt P21728). The following applies: cited from earlier work.
The next data set concerns the target T1, 5-HT1A receptor (Rattus norvegicus, UniProt P19327).
T1 sequence (P19327 1-422): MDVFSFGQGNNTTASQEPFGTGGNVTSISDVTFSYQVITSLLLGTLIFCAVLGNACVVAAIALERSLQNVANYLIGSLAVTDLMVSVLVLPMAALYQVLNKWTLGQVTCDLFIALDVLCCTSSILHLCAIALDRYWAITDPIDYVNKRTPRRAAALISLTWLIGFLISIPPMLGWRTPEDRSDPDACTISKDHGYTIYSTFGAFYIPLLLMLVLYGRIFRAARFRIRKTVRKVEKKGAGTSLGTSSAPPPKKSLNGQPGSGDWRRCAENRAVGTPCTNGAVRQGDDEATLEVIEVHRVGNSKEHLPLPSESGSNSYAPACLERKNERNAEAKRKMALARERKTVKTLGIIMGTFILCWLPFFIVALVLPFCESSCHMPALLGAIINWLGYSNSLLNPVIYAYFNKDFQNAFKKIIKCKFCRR
The following applies: cited from earlier work.

Data set [6] deals with T2, 5-HT2C receptor (Sus scrofa, UniProt K7GSR7).
T2 sequence (K7GSR7 1-457): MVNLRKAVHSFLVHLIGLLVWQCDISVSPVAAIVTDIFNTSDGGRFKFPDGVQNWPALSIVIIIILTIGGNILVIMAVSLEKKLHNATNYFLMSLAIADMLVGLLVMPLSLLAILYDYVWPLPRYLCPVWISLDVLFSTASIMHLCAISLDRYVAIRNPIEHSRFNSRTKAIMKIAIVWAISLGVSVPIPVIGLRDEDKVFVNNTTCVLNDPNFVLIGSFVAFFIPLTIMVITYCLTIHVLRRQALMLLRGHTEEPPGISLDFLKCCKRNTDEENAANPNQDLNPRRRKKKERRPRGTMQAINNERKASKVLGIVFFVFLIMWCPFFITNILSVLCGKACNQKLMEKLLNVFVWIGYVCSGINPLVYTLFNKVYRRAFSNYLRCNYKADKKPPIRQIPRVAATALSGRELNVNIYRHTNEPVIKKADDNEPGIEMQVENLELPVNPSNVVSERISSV
The following applies: pig; cited from earlier work.

A further data set has as its target T3, 5-HT3 receptor (Mus musculus, UniProt P23979).
T3 sequence (P23979 24-489): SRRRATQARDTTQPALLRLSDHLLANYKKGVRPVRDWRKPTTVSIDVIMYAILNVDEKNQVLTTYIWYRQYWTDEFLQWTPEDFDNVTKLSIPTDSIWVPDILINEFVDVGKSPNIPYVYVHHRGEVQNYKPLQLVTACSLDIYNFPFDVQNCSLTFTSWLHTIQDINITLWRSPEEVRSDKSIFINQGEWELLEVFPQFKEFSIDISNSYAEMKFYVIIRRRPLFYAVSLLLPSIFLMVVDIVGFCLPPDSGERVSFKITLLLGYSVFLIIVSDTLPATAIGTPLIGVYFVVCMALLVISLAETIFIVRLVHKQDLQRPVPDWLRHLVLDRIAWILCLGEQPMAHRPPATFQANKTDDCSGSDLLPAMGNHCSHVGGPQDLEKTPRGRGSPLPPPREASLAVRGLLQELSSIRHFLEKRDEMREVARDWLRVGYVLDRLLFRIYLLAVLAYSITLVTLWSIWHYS
The following applies: cited from earlier work.

Data set [7] deals with 5-HT7 receptor (Mus musculus, UniProt P32304). The following applies: cited from earlier work.
Data set [8] has as its target D2-S (short form of D2 receptor) (Homo sapiens, UniProt P14416). The following applies: cited from earlier work.
Data set [9] has as its target D2-L (long form of D2 receptor) (Homo sapiens, UniProt P14416). The following applies: cited from earlier work.
Another data set addresses T4, D4 dopamine receptor (Homo sapiens, UniProt P21917).
T4 sequence (P21917 1-419): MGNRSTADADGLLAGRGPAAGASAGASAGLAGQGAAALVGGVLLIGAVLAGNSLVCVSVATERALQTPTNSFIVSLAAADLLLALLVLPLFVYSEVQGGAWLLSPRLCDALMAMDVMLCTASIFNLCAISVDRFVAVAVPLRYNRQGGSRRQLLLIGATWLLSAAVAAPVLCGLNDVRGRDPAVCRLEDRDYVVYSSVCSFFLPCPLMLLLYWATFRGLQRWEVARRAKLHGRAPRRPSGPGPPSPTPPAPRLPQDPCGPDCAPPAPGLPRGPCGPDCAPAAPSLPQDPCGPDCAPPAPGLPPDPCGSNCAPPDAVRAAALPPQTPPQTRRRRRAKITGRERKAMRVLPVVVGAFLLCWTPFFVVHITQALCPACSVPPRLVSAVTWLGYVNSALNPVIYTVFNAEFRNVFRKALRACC
The following applies: human; cited from earlier work.

Data set [10] has as its target mACh, muscarinic acetylcholine receptor. The following applies: rat; cited from earlier work.
Data set [11] has as its target α1-adrenoceptor. The following applies: species for α1 not given; cited from earlier work.
The target of another data set is α2-adrenoceptor. The following applies: cited from earlier work.
In the next data set the target is sigma, σ receptor. The following applies: guinea-pig; cited from earlier work.
The subject of data set [12] is 5-HT2C receptor relative to 5-HT2A and D2 receptors. In words: Relative 5-HT2C affinity (formula I, sum of 5-HT2C/5-HT2A and 5-HT2C/D2 affinity ratios).
The target of data set [13] is T5, 5-HT2C receptor (Homo sapiens, UniProt P28335).
T5 sequence (P28335 33-458): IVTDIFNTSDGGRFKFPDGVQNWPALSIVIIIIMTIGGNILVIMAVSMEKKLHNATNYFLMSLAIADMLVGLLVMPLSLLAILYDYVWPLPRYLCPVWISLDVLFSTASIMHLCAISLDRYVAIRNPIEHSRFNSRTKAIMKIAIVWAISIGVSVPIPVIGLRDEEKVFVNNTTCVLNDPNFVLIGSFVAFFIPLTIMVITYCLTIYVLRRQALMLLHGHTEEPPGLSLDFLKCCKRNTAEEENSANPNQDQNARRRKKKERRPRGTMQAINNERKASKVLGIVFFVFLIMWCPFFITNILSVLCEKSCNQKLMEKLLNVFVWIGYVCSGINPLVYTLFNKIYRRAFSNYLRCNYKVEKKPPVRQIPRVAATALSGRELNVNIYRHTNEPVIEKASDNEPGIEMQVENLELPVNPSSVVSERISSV
The following applies: Table 3; expressed as pKi or pKd values; known affinities; cited from earlier work.

For another data set, the target named is 5-HT2A receptor (Homo sapiens, UniProt P28223). The following applies: Table 3; expressed as pKi or pKd values; known affinities; cited from earlier work.
For a further data set, the target named is D2 receptor (Homo sapiens, UniProt P14416). The following applies: Table 3; expressed as pKi or pKd values; known affinities; cited from earlier work.
Data set [14] deals with α1-adrenoceptor. The following applies: human, expressed as KD; cited from earlier work.
Data set [15] has as its target D1 dopamine receptor (Rattus norvegicus, UniProt P18901). The following applies: cited from earlier work.
On the set-up of data set [16]: key: 1-high; 2-medium; 3-low probability. The following applies: Table 4A; grading of probability from literature reports; cited from earlier work. This is another data set of the same source.
For data set [17], the target named is α1-adrenoceptor. The following applies: rat; cited from earlier work.
Where [18] appears, read: Table 3, calculated from known 5-HT2C/5-HT2A/D2 affinities.

Read-outs that look alike come from different tables or passages of the source.

Chain of 5-HT2A receptor (P28223 whole entry): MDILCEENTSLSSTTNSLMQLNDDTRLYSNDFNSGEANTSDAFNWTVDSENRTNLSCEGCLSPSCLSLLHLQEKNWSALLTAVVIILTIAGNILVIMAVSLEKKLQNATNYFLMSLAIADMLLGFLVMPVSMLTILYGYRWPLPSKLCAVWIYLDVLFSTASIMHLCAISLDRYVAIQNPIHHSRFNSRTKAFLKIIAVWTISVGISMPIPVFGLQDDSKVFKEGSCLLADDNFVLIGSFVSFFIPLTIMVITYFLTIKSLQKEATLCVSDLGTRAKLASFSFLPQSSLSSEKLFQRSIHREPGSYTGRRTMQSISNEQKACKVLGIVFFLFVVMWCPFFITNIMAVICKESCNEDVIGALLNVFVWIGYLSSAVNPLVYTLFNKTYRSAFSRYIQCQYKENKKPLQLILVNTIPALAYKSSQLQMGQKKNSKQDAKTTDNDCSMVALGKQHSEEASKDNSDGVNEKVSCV
Chain of D2 receptor (P14416 whole entry): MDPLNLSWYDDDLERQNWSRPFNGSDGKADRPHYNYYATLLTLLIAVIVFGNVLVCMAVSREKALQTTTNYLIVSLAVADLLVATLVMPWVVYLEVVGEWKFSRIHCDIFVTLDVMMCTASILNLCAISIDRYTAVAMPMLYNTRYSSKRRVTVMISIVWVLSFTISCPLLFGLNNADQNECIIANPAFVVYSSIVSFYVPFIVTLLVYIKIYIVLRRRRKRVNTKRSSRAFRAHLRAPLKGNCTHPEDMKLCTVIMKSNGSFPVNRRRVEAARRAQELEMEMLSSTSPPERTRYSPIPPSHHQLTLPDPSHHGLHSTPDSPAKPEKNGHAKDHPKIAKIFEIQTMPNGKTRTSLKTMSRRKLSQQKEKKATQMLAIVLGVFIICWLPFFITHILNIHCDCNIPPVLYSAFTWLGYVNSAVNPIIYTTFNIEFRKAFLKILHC
Chain of 5-HT6 receptor (P31388 whole entry): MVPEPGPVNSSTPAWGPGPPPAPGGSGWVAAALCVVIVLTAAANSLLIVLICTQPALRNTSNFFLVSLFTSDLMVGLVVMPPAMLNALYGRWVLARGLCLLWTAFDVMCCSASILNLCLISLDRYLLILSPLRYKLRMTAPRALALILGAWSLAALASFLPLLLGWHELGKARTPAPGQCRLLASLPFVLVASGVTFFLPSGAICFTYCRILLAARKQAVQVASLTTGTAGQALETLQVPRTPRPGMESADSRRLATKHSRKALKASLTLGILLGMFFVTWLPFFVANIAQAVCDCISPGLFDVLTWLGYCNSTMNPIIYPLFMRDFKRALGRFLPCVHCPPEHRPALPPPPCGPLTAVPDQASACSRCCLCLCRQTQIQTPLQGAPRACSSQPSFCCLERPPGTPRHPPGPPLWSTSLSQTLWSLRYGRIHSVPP
Chain of 5-HT7 receptor (Mus musculus, UniProt P32304) (P32304 whole entry): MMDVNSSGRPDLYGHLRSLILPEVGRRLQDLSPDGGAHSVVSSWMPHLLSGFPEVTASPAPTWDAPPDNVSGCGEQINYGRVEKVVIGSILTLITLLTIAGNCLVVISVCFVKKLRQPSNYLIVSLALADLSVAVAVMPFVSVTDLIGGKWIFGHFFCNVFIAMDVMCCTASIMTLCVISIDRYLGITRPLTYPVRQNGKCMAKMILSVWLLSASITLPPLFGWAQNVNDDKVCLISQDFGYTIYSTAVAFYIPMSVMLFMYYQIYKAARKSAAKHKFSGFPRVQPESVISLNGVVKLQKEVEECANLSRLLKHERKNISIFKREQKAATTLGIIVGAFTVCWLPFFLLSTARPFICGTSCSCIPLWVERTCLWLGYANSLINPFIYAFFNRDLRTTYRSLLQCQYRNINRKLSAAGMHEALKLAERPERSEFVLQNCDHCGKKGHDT
Chain of 5-HT7 receptor (Rattus norvegicus, UniProt P32305) (P32305 whole entry): as the sequence (P32304 whole entry) above, with R27G, S39P, P53L, S279P, C438S counted along it
Chain of D2-S (short form of D2 receptor) (P14416 1-414 isoform P14416-2): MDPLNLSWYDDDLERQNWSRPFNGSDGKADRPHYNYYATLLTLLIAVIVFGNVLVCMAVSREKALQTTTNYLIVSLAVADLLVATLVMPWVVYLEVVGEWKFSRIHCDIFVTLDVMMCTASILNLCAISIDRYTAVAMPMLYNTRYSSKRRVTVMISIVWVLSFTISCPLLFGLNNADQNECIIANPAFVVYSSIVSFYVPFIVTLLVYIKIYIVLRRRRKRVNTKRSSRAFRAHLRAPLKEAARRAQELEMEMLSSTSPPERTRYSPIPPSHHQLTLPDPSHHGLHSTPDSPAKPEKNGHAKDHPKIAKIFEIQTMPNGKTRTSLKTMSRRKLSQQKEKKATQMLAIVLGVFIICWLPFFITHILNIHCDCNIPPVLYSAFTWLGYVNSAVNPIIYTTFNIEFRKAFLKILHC
Chain of D1 dopamine receptor (Homo sapiens, UniProt P21728) (P21728 whole entry): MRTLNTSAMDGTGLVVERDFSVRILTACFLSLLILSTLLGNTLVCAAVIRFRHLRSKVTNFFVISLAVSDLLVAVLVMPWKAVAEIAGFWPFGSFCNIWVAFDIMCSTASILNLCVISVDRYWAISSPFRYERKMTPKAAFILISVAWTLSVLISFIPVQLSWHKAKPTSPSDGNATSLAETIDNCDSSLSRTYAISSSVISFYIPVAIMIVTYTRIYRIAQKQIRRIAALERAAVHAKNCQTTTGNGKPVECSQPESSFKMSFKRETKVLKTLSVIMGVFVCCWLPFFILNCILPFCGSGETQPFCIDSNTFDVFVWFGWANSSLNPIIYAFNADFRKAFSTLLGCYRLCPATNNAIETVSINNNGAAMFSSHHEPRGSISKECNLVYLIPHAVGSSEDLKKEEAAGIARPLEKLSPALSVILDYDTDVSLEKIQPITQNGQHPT
Chain of D1 dopamine receptor (Rattus norvegicus, UniProt P18901) (P18901 whole entry): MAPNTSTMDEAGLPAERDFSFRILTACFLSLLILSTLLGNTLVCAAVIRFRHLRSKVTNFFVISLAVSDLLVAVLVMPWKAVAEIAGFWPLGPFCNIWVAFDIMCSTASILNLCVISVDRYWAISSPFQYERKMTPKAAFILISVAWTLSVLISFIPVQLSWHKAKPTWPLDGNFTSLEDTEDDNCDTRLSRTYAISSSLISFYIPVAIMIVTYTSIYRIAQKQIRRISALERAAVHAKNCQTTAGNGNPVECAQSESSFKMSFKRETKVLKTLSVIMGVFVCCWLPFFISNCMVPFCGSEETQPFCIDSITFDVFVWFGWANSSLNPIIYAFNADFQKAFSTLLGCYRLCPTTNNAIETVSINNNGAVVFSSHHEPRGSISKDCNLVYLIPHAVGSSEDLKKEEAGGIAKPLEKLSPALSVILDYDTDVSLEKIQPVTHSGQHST
Chain of D2-L (long form of D2 receptor) (P14416 whole entry): as the sequence (P14416 whole entry) above

As to `Cc1cc2c(s1)Nc1ccccc1N=C2N1CCN(C)CC1` [Olanzapine], in data set [1], the Extra-pyramidal side effects is on record as 1-2. Further, the Increases prolactin levels in [2] is 2. The “Weight Gain” value in [3] is 2. Also, the “weight gain (in words)” value in data set [3] (text b109, literature reports) is “do cause weight gain”.

For the molecule `CCN1CCCC1CNC(=O)c1cc(S(N)(=O)=O)ccc1OC` (stereo not drawn) [Sulpiride], the “5-HT6 affinity value (−logKi)” value at 5-HT6 receptor is recorded as <5.3^2. Besides, on 5-HT7 receptor [4], the “5-HT7 affinity value (−logKi)” value is <5.3^2. Besides, the “D1 affinity value (−logKi)” value at D1 dopamine receptor [5] is <5^9.

Turning to `CN1CCN(C2=Nc3cc(Cl)ccc3Nc3ccccc32)CC1` [Clozapine], the Extra-pyramidal side effects in [1] is 3.

On to `O=C1NCN(c2ccccc2)C12CCN(CCCC(c1ccc(F)cc1)c1ccc(F)cc1)CC2` [Fluspirilene], for which the “5-HT1A affinity value (−logKi)” value at 5-HT1A receptor is 7.3^6. Besides, the “5-HT2C affinity value (−logKi)” value at 5-HT2C receptor [6] was 5.7^6. In addition, the “5-HT3 affinity value (−logKi)” value on 5-HT3 receptor was <5.3^6. Moreover, on 5-HT7 receptor [7], the “5-HT7 affinity value (−logKi)” value was 7.5^6. In addition, in [8], the “D2-S affinity value (−logKi)” value is listed as 8.9^6. In addition, the “D2-L affinity value (−logKi)” value in [9] is listed as 9.2^6. Also, the “D4 affinity value (−logKi)” value on D4 dopamine receptor is given as 8.4^6. For the same molecule, in [10], the “mACh affinity value (−logKi)” value is given as <5.3^6. Moreover, the “α1 affinity value (−logKi)” value at α1-adrenoceptor [11] is reported as 7.0^6. Further, the “α2 affinity value (−logKi)” value at α2-adrenoceptor (species for α2 not stated) is <5.3^6. For the same molecule, the “sigma affinity value (−logKi)” value at sigma, σ receptor is 6.8^6. Moreover, in data set [12] (Table 2, sum of affinity ratios from data of Table 1), the “(2C/2A) + (2C/D2)” value is 1.33.

Take `CN(C)CCO[C@]1(c2ccccc2)C[C@H]2CC[C@]1(C)C2(C)C.O=C(O)/C=C/C(=O)O` [Deramciclane, (1R,2S,4R)-(−)-2-[2-(N,N-dimethylamino)-ethoxy]-2-phenyl-1,7,7-trimethylbicyclo[2.2.1]heptane]: the “5-HT2C Affinity” value on 5-HT2C receptor [13] is reported as 7.8. Further, the “5-HT2A Affinity” value on 5-HT2A receptor was 8. At D2 receptor, the “D2 Affinity” value is given as 7. For the same molecule, in data set [12] (setting [18]), the “Formula I Affinity Ratio” value was 2.09.

As for `CSc1ccc2c(c1)N(CCC1CCCCN1C)c1ccccc1S2` (stereo not drawn) [Thioridazine], at D4 dopamine receptor, the “D4 affinity value (−logKi)” value is listed as 7.9^12.

For `CN(C)CCCN1c2ccccc2Sc2ccc(Cl)cc21` [Chlorpromazine], the “α1 affinity value (−log KD)” value on α1-adrenoceptor [14] is given as 8.6^16.

Consider `CC(C)N1CCN(CCN2CCC(c3cn(-c4ccc(F)cc4)c4cc(Cl)ccc34)CC2)C1=O` [LU-26042], for which the “5-HT2C Affinity” value on 5-HT2C receptor [13] is listed as 7.8. Also, the “5-HT2A Affinity” value on 5-HT2A receptor is listed as 8.8. Besides, the “D2 Affinity” value at D2 receptor is on record as 6.9. In addition, the “Formula I Affinity Ratio” value in data set [12] came to 2.02.

As for `COc1cc(OC)c(C(=O)CCCCN2CCC3(CC2)NC(=O)NC3=O)cc1NS(=O)(=O)c1ccc(C(F)(F)F)cc1` [RS-102221], the “5-HT2C Affinity” value at 5-HT2C receptor [13] is reported as 8.2. For the same molecule, the “5-HT2A Affinity” value at 5-HT2A receptor is on record as 5.8. Moreover, in [12] (setting [18]), the “Formula I Affinity Ratio” value is on record as 2.78.

For the molecule `CN(C)CCSc1nc2ccccc2cc1-c1ccccc1` [ICI-169369], on 5-HT2C receptor [13], the “5-HT2C Affinity” value was 8. Moreover, at 5-HT2A receptor, the “5-HT2A Affinity” value is 7.7. The “D2 Affinity” value at D2 receptor was 6.5. The “Formula I Affinity Ratio” value in data set [12] (setting [18]) is listed as 2.27.

For `CCCN1CCC[C@H]2c3c(OC)cccc3OC[C@@H]21.Cl` (stereo in doubt) [CGS-18102A, 10-methoxy-4-propyl-1,2,3,4a,5,10b-hexahydro-4H-[1]-benzopyrano[3,4-b]pyridine hydrochloride], the “5-HT2A Affinity” value at 5-HT2A receptor is listed as 6.6. The “D2 Affinity” value at D2 receptor was 7.4. Further, in [12] (setting [18]), the “Formula I Affinity Ratio” value is 2.06.

Turning to `O=C1Cc2cc(CCN3CCN(c4nsc5ccccc45)CC3)c(Cl)cc2N1` [Ziprasidone], the “5-HT1A affinity value (−logKi)” value at 5-HT1A receptor was 7.9^6. In addition, at 5-HT2C receptor [6], the “5-HT2C affinity value (−logKi)” value is reported as 7.9^6. The “5-HT3 affinity value (−logKi)” value at 5-HT3 receptor was 5.5^6. Also, on 5-HT6 receptor, the “5-HT6 affinity value (−logKi)” value is recorded as 6.9^14. The “5-HT7 affinity value (−logKi)” value on 5-HT7 receptor [4] was 7.6^14; at 5-HT7 receptor [7], 8.3^6. Further, the “D1 affinity value (−logKi)” value on D1 dopamine receptor [15] is recorded as 6.3^14. The “α2 affinity value (−logKi)” value at α2-adrenoceptor (no reference given) is reported as below 6. Moreover, the “sigma affinity value (−logKi)” value at sigma, σ receptor is listed as <5.3^6. The Extra-pyramidal side effects in [1] was 2. For the same molecule, the Improvement negative symptoms in [16] was 2. Further, the Increases prolactin levels in data set [2] was 3. Besides, the “Weight Gain” value in data set [3] was 3. Besides, the “α1 affinity value (−logKi)” value on α1-adrenoceptor [17] is listed as 8.0^14.

(Values after patent US20060229299A1, “5ht2c Receptor antagonists in the treatment of schizophrenia” (priority 2003, published 2006).)
